Measured values taken from patent US7507739B2, “6-[(substituted)phenyl]triazolopyrimidines as anticancer agents” (Wyeth, priority 2003, dated 2009).
Marks after values point to notes of the source that are not given here.

Tests used:
[1] = system: DLD1 Human Colon Carcinoma; assay: Human tumor xenograft test, DLD1; assay type: in vivo; settings: days 1, 5, 9, 13
Protocol: (§1) The ability of compounds of this invention to inhibit tumor growth in animals is studied in the athymic mouse xenograft standard pharmacological test. Female nu/nu mice in an outbred albino background are obtained from Charles River Laboratories (Wilmington, Mass.). Animals are injected subcutaneously on the flank with the desired tumor cell suspension. Several days later, mice with tumors of approximately 150 mm^3 are selected from those injected (staged) and randomly distributed into groups of 5-10. The day of staging is called day 0. Compounds of the invention, usually formulated in saline (exceptions are noted in tables), are administered to animals by intravenous injection or oral gavage on various schedules starting on day 0 or 1, as noted in the tables. The control group in each experiment is dosed with vehicle on the same schedule. Tumor size is measured every 3-7 days with calipers in two orthogonal dimensions, and tumor volume is calculated from the formula volume=[(length×width^2)/2].
(§2) Tumor/Control (T/C) is obtained by dividing the mean tumor volume of the treated group by the mean tumor volume of the control group on each measurement day. A treatment dose is defined as active if it produced a statistically significant T/C of 0.50 or less. A p value≦0.05, determined by one-side Student's t-test, is required for statistical significance. A treatment dose is defined as toxic if more than 10% of the animals died from a compound-related toxicity.

[2] = system: HeLa cells; assay: Cell cycle analysis with HeLa cells; assay type: cell-based, human; settings: 18 hr
Protocol: HeLa cells are harvested by trypsinization, washed, counted and distributed to wells of 12-well plates at 125,000 cells per well in 2 mL medium. Cells are cultured overnight. […] Cells are continued in culture for 18 hr after compound addition, then cells in each well are harvested (taking care to recover both adherent and non-adherent cells) and processed using the CycleTEST PLUS kit (Becton Dickinson Immunocytometry Systems, San Jose, Calif.). Flow cytometry is done with a FACSort instrument (Becton Dickinson).
This procedure measures the percentages of cells in a population that are in the G1, S, and G2/M phases of the cell cycle. It utilizes staining of cell nuclei with propidium iodide and analysis by flow cytometry.

[3] = system: U87-MG Human Glioblastoma; assay: Human tumor xenograft test, U87-MG; assay type: in vivo, athymic mice; settings: for T/C on day 0 / T/C on day 3 / T/C on day 7 / T/C on day 10 / T/C on day 13 / T/C on day 17: U87-MG, days 1, 5, 9
Protocol: as §1, §2

## CNCCCOc1cc(F)c(-c2c(Cl)nc3ncnn3c2NCC(F)(F)F)c(F)c1.Cl [Example 3a, 5-Chloro-6-{2,6-difluoro-4-[3-(methylamino)propoxy]phenyl}-N-(2,2,2-trifluoroethyl)[1,2,4]triazolo[1,5-a]pyrimidin-7-amine hydrogen chloride Salt]
[1]; DLD1, 10 mg/kg IV
  T/C on day 0: 1.00
  T/C on day 7: 0.77
  T/C on day 14: 0.75
  T/C on day 21: 0.84
[1]; DLD1, 20 mg/kg IV
  T/C on day 0: 1.00
  T/C on day 7: 0.55
  T/C on day 14: 0.56
  T/C on day 21: 0.73
[1]; DLD1, 25 mg/kg IV
  T/C on day 0: 1.00
  T/C on day 7: 0.59
  T/C on day 14: 0.46
  T/C on day 21: 0.60
[2]; 20 nM
  Percent in Cell Cycle Phase >4N: 1%
  Percent in Cell Cycle Phase Apop: 29%
  Percent in Cell Cycle Phase G1: 42%
  Percent in Cell Cycle Phase G2/M: 16%
  Percent in Cell Cycle Phase S: 12%
[2]; 30 nM
  Percent in Cell Cycle Phase >4N: 2%
  Percent in Cell Cycle Phase Apop: 55%
  Percent in Cell Cycle Phase G1: 11%
  Percent in Cell Cycle Phase G2/M: 21%
  Percent in Cell Cycle Phase S: 11%
[2]; 40 nM
  Percent in Cell Cycle Phase >4N: 3%
  Percent in Cell Cycle Phase Apop: 50%
  Percent in Cell Cycle Phase G1: 6%
  Percent in Cell Cycle Phase G2/M: 31%
  Percent in Cell Cycle Phase S: 10%
[2]; 50 nM
  Percent in Cell Cycle Phase >4N: 3%
  Percent in Cell Cycle Phase Apop: 32%
  Percent in Cell Cycle Phase G1: 5%
  Percent in Cell Cycle Phase G2/M: 52%
  Percent in Cell Cycle Phase S: 8%
[2]; 60 nM
  Percent in Cell Cycle Phase >4N: 4%
  Percent in Cell Cycle Phase Apop: 25%
  Percent in Cell Cycle Phase G1: 4%
  Percent in Cell Cycle Phase G2/M: 58%
  Percent in Cell Cycle Phase S: 9%
[2]; 70 nM
  Percent in Cell Cycle Phase >4N: 4%
  Percent in Cell Cycle Phase Apop: 21%
  Percent in Cell Cycle Phase G1: 5%
  Percent in Cell Cycle Phase G2/M: 61%
  Percent in Cell Cycle Phase S: 9%
[2]; 80 nM
  Percent in Cell Cycle Phase >4N: 5%
  Percent in Cell Cycle Phase Apop: 24%
  Percent in Cell Cycle Phase G1: 5%
  Percent in Cell Cycle Phase G2/M: 57%
  Percent in Cell Cycle Phase S: 11%
[2]; 90 nM
  Percent in Cell Cycle Phase >4N: 4%
  Percent in Cell Cycle Phase Apop: 23%
  Percent in Cell Cycle Phase G1: 5%
  Percent in Cell Cycle Phase G2/M: 60%
  Percent in Cell Cycle Phase S: 8%
[2]; 100 nM
  Percent in Cell Cycle Phase >4N: 5%
  Percent in Cell Cycle Phase Apop: 25%
  Percent in Cell Cycle Phase G1: 5%
  Percent in Cell Cycle Phase G2/M: 55%
  Percent in Cell Cycle Phase S: 10%
[2]; 110 nM
  Percent in Cell Cycle Phase >4N: 5%
  Percent in Cell Cycle Phase Apop: 26%
  Percent in Cell Cycle Phase G1: 6%
  Percent in Cell Cycle Phase G2/M: 54%
  Percent in Cell Cycle Phase S: 10%
[2]; 120 nM
  Percent in Cell Cycle Phase >4N: 5%
  Percent in Cell Cycle Phase Apop: 30%
  Percent in Cell Cycle Phase G1: 6%
  Percent in Cell Cycle Phase G2/M: 48%
  Percent in Cell Cycle Phase S: 12%
[3]; 10 mg/kg PO
  T/C on day 0: 0.99
  T/C on day 3: 1.08
  T/C on day 7: 0.85
  T/C on day 10: 0.69**
  T/C on day 13: 0.52**
  T/C on day 17: 0.51**
[3]; 20 mg/kg PO
  T/C on day 0: 1.01
  T/C on day 3: 0.90
  T/C on day 7: 0.73
  T/C on day 10: 0.63**
  T/C on day 13: 0.42**
  T/C on day 17: 0.39**
[3]; 40 mg/kg PO
  T/C on day 0: 1.02
  T/C on day 3: 0.73
  T/C on day 7: 0.65**
  T/C on day 10: 0.48**
  T/C on day 13: 0.30**
  T/C on day 17: 0.20**
[3]; U-87 MG, oral dosing, 40, 20, and 10 mg/kg
  tumor growth inhibition (activity call): active
